The target in assay [1] is T1, interaction between GMPPNP-bound recombinant K-Ras4B G12C mutant protein and cRAF RAS-binding domain (cRAF-RBD) (Homo sapiens, UniProt P01116, G12C).
T1 construct: His-tag (N)
Briefly: Inhibitory activity on interaction between KRAS G12C and cRAF (Alpha technology). The following applies: GMPPNP-bound KRAS G12C incubated with compound 25° C. 1 hour; Table 2-1; read-out: IC50. A digest of the protocol:
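Alpha signal measured 1.5 h after adding cRAF-RBD (aa 50-132) and detection reagents to GMPPNP-bound KRAS G12C (aa 1-169) pretreated 1 h at 25° C with compound (pH 7.5 buffer). 0% inhibition = DMSO, 100% = GDP-loaded KRAS; IC50 by curve fit.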

Assay [2] deals with MIA PaCa-2 cells. In words: Growth inhibition activity on KRAS-G12C mutant cell line (CellTiter-Glo 3D). The assay is classed as cell-based, human. The following applies: Homo sapiens, MIA PaCa-2, 72 h, MIA PaCa-2, 3-day culture with compound; Table 3-1. In outline:
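IC50 (nM) derived from inhibition of luminescence (CellTiter-Glo 3D) relative to compound-free wells. Cells were seeded in U-bottom plates, grown 1 day, then exposed to compound for 3 days at 37 °C with 0.2% final DMSO.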
For orientation: ATP-based viability assays read luminescence as a measure of living cells.

T1 sequence (P01116 with tags, fused parts or gaps isoform P01116-2 G12C): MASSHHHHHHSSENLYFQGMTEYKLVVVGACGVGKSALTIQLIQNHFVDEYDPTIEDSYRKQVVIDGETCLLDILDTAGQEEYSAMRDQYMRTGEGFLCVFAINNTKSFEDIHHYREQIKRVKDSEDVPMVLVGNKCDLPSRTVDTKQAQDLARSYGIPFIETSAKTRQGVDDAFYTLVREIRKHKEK

The term IC50 denotes the concentration that gives 50% inhibition. With `COc1cc2c(nc(C)n2C)c2c1-c1cccn3c(C(=O)c4cc(F)c(NC(=O)/C=C/CNC5(C)CC5)c(F)c4)cc(c13)CCO2` [Example 194], the IC50 stood at 0.0103 µM in assay [1] and 0.00638 µM in assay [2].
For `Cn1cnc2c3c(c(C(F)(F)F)cc21)-c1cccn2c(C(=O)c4cc(F)c(NC(=O)/C=C/CN5CCC[C@@](C)(O)C5)c(F)c4)cc(c12)CCO3` [Example 195, (R,E)-N-(2,6-difluoro-4-(9-methyl-7-(trifluoro-meth-yl)-13,14-dihydro-9H-imidazo[4″,5″:5′,6′]-benzo[1′,2′:2,3]oxocino-[4,5,6-hi]indolizine-2-carbonyl)phenyl)-4-(3-hydroxy-3-methylpiper-idin-1-yl)but-2-enamide] the same measures were 0.0394 µM and 0.0193 µM.
For `Cn1cnc2c3c(c(C(F)(F)F)cc21)-c1cccn2c(C(=O)c4cc(F)c(NC(=O)/C=C/CN5CCC[C@](C)(O)C5)c(F)c4)cc(c12)CCO3` [Example 196, (S,E)-N-(2,6-difluoro-4-(9-methyl-7-(trifluoro-methyl)-13,14-dihydro-9H-imidazo[4″,5″:5′,6′]-benzo[1′,2′:2,3]oxocino-[4,5,6-hi]indolizine-2-carbonyl)phenyl)-4-(3-hydroxy-3-methylpiper-idin-1-yl)but-2-enamide] the same measures were 0.0351 µM and 0.0315 µM.
For `Cn1cnc2c3c(c(C(F)(F)F)cc21)-c1cccn2c(C(=O)c4cc(F)c(NC(=O)/C=C/CN5C6CCC5COC6)c(F)c4)cc(c12)CCO3` [Example 197] the same measures were 0.0117 µM and 0.0109 µM.
As for `Cn1cnc2c3c(c(C(F)(F)F)cc21)-c1cccn2c(C(=O)c4cc(F)c(NC(=O)/C=C/CN5CC6(COC6)C5)c(F)c4)cc(c12)CCO3` [Example 198, (E)-N-(2,6-difluoro-4-(9-methyl-7-(trifluorometh-yl)-13,14-dihydro-9H-imidazo[4″,5″:5′,6′]benzo-[1′,2′:2,3]oxocino[4,5,6-hi]indolizine-2-carbonyl)-phenyl)-4-(2-oxa-6-azaspiro[3.3]heptan-6-yl)but-2-enamide], the results for the IC50 in assay [1] and in assay [2] were 0.0571 µM and 0.0214 µM, respectively.
On the same counts, the results for `CN1CCc2cc(C(=O)c3cc(F)c(NC(=O)/C=C/CN4C[C@@H]5C[C@H]4CO5)c(F)c3)n3cccc(c23)-c2c(C(F)(F)F)cc3c(ncn3C)c21` [Example 208, (E)-4-((1S,4S)-2-oxa-5-azabicyclo[2.2.1]heptan-5-yl)-N-(4-(9,12-dimeth-yl-7-(trifluoromethyl)-9,12,13,14-tetrahydro-imidazo[4″,5″:5′,6′]benzo-[1′,2′:2,3]azocino[4,5,6-hi]indolizine-2-carbonyl)-2,6-difluorophenyl)but-2-enamide] are 0.0354 µM and 0.0114 µM.
On to `COCc1nc2c3c(c(C(F)(F)F)cc2n1C)-c1cccn2c(C(=O)c4cc(F)c(NC(=O)/C=C/CN[C@H]5CCOC5)c(F)c4)cc(c12)COC3` [Example 209, (S,E)-N-(2,6-difluoro-4-(10-(methoxymethyl)-9-methyl-7-(trifluoromethyl)-9,12-dihydro-14H-imidazo[4″,5″:3′,4′]benzo[1′,2′:6,7]oxocino[5,4,3-hi]indolizine-2-carbonyl)phenyl)-4-((tetrahydrofuran-3-yl)amino)but-2-enamide], for which the figures for the IC50 in assay [1] and in assay [2] were 0.0469 µM and 0.0187 µM, respectively.
On the same counts, the results for `COc1cc(N2CCCC2=O)cc2c1-c1cccn3c(C(=O)c4cc(F)c(NC(=O)/C=C/CNC5(C)CC5)c(F)c4)cc(c13)CCO2` [Example 210] are 0.0381 µM and 0.0603 µM.
For `C[C@@H](O)[C@@H]1CCCN1C/C=C/C(=O)Nc1c(F)cc(C(=O)c2cc3c4c(cccn24)-c2c(C(F)(F)F)cc4c(ncn4C)c2N(C)CC3)cc1F` [Example 211, (E)-N-(4-(9,12-dimethyl-7-(trifluoromethyl)-9,12,13,14-tetrahydro-imidazo[4″,5″:5′,6′]benzo-[1′,2′:2,3]azocino[4,5,6-hi]indolizine-2-carbonyl)-2,6-difluorophenyl)-4-((S)-2-((R)-1-hydroxy-ethyl)pyrrolidin-1-yl)but-2-enamide] the same measures were 0.0519 µM and 0.0109 µM.
Take `Cn1cnc2c3c(c(C(F)(F)F)cc21)-c1cccn2c(C(=O)c4cc(F)c(NC(=O)/C=C/CN5C6COCC5C6)c(F)c4)cc(c12)CCO3` [Example 212, (E)-4-(3-oxa-6-azabicyclo-[3.1.1]heptan-6-yl)-N-(2,6-difluoro-4-(9-meth-yl-7-(trifluoromethyl)-13,14-dihydro-9H-imidazo-[4″,5″:5′,6′]benzo[1′,2′: 2,3]oxocino[4,5,6-hi]-indolizine-2-carbonyl)-phenyl)but-2-enamide]: the IC50 worked out at 0.0163 µM in assay [1] and 0.00416 µM in assay [2].
For `Cn1cnc2c3c(c(C(F)(F)F)cc21)-c1cccn2c(C(=O)c4cc(F)c(NC(=O)/C=C/CN5C[C@H]6COC[C@H]6C5)c(F)c4)cc(c12)CCO3` [Example 213, (E)-N-(2,6-difluoro-4-(9-methyl-7-(trifluorometh-yl)-13,14-dihydro-9H-imidazo[4″,5″:5′,6′]benzo-[1′,2′:2,3]oxocino[4,5,6-hi]indolizine-2-carbonyl)-phenyl)-4-((3aR,6aS)-tetrahydro-1H-furo[3,4-c]pyrrol-5(3H)-yl)but-2-enamide], the values for the IC50 in assay [1] and in assay [2] were 0.0621 µM and 0.0253 µM, respectively.
For `CN1CCc2cc(C(=O)c3cc(F)c(NC(=O)/C=C/CNC4(C)CC4)c(F)c3)n3cccc(c23)-c2c(C(F)(F)F)cc3c(ncn3C)c21` [Example 214, (E)-N-(4-(9.12-dimethyl-7-(trifluoromethyl)-9,12,13,14-tetrahydro-imidazo[4″,5″:5′,6′]benzo-[1′,2′:2,3]azocino[4,5,6-hi]indolizine-2-carbonyl)-2,6-difluorophenyl)-4-((1-methylcyclopropyl)amino)-but-2-enamide] the same measures were 0.0115 µM and 0.0011 µM.
For `COCCn1cnc2c3c(c(C(F)(F)F)cc21)-c1cccn2c(C(=O)c4cc(F)c(NC(=O)C=CCNC5(C)CC5)c(F)c4)cc(c12)CCN3C` [Example 215, (E)-N-(2,6-difluoro-4-(9-(2-methoxyethyl)-12-methyl-7-(trifluoromethyl)-9,12,13,14-tetrahydroimidazo[4″,5″:5′,6′]benzo[1′,2′:2,3]azocino[4,5,6-hi]indolizine-2-carbonyl)phenyl)-4-((1-methylcyclopropyl)amino)but-2-enamide], the IC50 amounted to 0.0183 µM in assay [1] and 0.0034 µM in assay [2].
For `Cc1nnc2c3c(c(C(F)(F)F)cn12)-c1cccn2c(C(=O)c4cc(F)c(NC(=O)/C=C/CN[C@H]5CCOC5)c(F)c4)cc(c12)CCN3C` [Example 217, (S,E)-N-(4-(10,13-dimethyl-7-(trifluoromethyl)-14,15-dihydro-13H-[1,2,4]triazolo[4″,3″:1′,2′]pyrido[3′,4′:2,3]azocino[4,5,6-hi]indolizine-2-carbonyl)-2,6-difluorophenyl)-4-((tetrahydrofuran-3-yl)amino)but-2-enamide] the same measures were 0.0197 µM and 0.00622 µM.
Consider `C[C@H](O)[C@@H]1CCCN1C/C=C/C(=O)Nc1c(F)cc(C(=O)c2cc3c4c(cccn24)-c2c(C(F)(F)F)cc4c(ncn4C)c2N(C)CC3)cc1F` [Example 219, (E)-N-(4-(9,12-dimethyl-7-(trifluoromethyl)-9,12,13,14-tetrahydro-imidazo[4″,5″:5′,6′]benzo-[1′,2′:2,3]azocino[4,5,6-hi]indolizine-2-carbonyl)-2,6-difluorophenyl)-4-((S)-2-((S)-1-hydroxy-ethyl)pyrrolidin-1-yl)but-2-enamide], for which the half-maximal inhibitory concentration (IC50) in assay [1] was 0.0385 µM; in assay [2], 0.0126 µM.
For the compound `Cn1cnc2c3c(c(C(F)(F)F)cc21)-c1cccn2c(C(=O)c4cc(F)c(NC(=O)/C=C/CN5CC6CCC5CO6)c(F)c4)cc(c12)CCO3` (stereo not drawn) [Example 220, (E)-4-(2-oxa-5-aza-bicyclo[2.2.2]octan-5-yl)-N-(2,6-difluoro-4-(9-methyl-7-(trifluorometh-yl)-13,14-dihydro-9H-imidazo[4″,5″:5′,6′]benzo-[1′,2′:2,3]oxocino[4,5,6-hi]indolizine-2-carbonyl)-phenyl)but-2-enamide], the IC50 in assay [1] turned out to be 0.0244 µM; in assay [2] it was 0.00652 µM.
For `Cn1cnc2c3c(c(C(F)(F)F)cc21)-c1cccn2c(C(=O)c4cc(F)c(NC(=O)/C=C/CN5C6CCCC5COC6)c(F)c4)cc(c12)CCO3` [Example 221, (E)-4-(3-oxa-9-azabicyclo-[3.3.1]nonan-9-yl)-N-(2,6-difluoro-4-(9-methyl-7-(trifluoromethyl)-13,14-dihydro-9H-imidazo[4″,5″: 5′,6′]benzo[1′,2′:2,3]oxo-cino[4,5,6-hi]indolizine-2-carbonyl)phenyl)but-2-enamide], the IC50 in assay [1] turned out to be 0.0392 µM; in assay [2], 0.0209 µM.
For `Cn1cnc2c3c(c(C(F)(F)F)cc21)-c1cccn2c(C(=O)c4cc(F)c(NC(=O)/C=C/CN5CCCC[C@H]5CO)c(F)c4)cc(c12)CCO3` [Example 222, (S,E)-N-(2,6-difluoro-4-(9-methyl-7-(trifluoro-methyl)-13,14-dihydro-9H-imidazo[4″,5″:5′,6′]-benzo[1′,2′:2,3]oxocino-[4,5,6-hi]indolizine-2-carbonyl)phenyl)-4-(2-(hydroxymethyl)piperidin-1-yl)but-2-enamide] the same measures were 0.0758 µM and 1.94 µM.
